This is an account of results in patent US20080045510A1, “Succinate salts of 6-methoxy-8-[4-(1-(5-fluoro)-quinolin-8-yl-piperidin-4-yl)-piperazin-1-yl]-quinoline and crystalline forms thereof” (Wyeth, priority 2006, published 2008).

Data set [1] in a line: solubility in aqueous media / water. The settings on record: even in the presence of surfactants. The data set is classed as physicochemical.
For data set [2] the following is noted: in vivo.

For `COc1cc(N2CCN(C3CCN(c4ccc(F)c5cccnc45)CC3)CC2)c2ncccc2c1.O=C(O)CCC(=O)O.O=C(O)CCC(=O)O.O=C(O)CCC(=O)O` [Form A, 6-methoxy-8-[4-(1-(5-fluoro)-quinolin-8-yl-piperidin-4-yl)-piperazin-1-yl]-quinoline trisuccinate], the hygroscopicity entry (believed) is listed as “substantially non-hygroscopic”. Also, the “conversion of crystalline form in water” value (upon dispersion in water for a few minutes in ambient conditions) is “convert to Form D”.
For the compound `COc1cc(N2CCN(C3CCN(c4ccc(F)c5cccnc45)CC3)CC2)c2ncccc2c1.O=C(O)CCC(=O)O.O=C(O)CCC(=O)O.O=C(O)CCC(=O)O` [Form B, 6-methoxy-8-[4-(1-(5-fluoro)-quinolin-8-yl-piperidin-4-yl)-piperazin-1-yl]-quinoline trisuccinate], the “conversion of crystalline form in THF/heptane slurry” value (slurried for two hours in a mixture of THF and heptane in an ice/water bath) was “convert to Form A”.
Regarding `COc1cc(N2CCN(C3CCN(c4ccc(F)c5cccnc45)CC3)CC2)c2ncccc2c1` [free base, 6-methoxy-8-[4-(1-(5-fluoro)-quinolin-8-yl-piperidin-4-yl)-piperazin-1-yl]-quinoline], the solubility in data set [1] is around 0.4 µg/mL.
As to `COc1cc(N2CCN(C3CCN(c4ccc(F)c5cccnc45)CC3)CC2)c2ncccc2c1.O=C(O)CCC(=O)O.O=C(O)CCC(=O)O.O=C(O)CCC(=O)O` [trisuccinate salt, 6-methoxy-8-[4-(1-(5-fluoro)-quinolin-8-yl-piperidin-4-yl)-piperazin-1-yl]-quinoline trisuccinate], the bioavailability entry in data set [2] is on record as “improved bioavailability over the free base”.

Broadly, the solubility is the dissolved amount per volume that the medium holds.
